In patent EP0326331B1, “Substituted quinolines and cinnolines” (Dow AgroSciences LLC, priority 1988, dated 1989):

Key:
Assay type in all cases: in vivo
[1] = tested on: southern armyworm (Spodopetra eridania Cramer); assay: Mite/insect screen, SAW; details: Spodoptera eridania, percent mortality, SAW, read-out: SAW RESULTS %; for mortality at 200 ppm: SM & MA RATE 200 PPM; for mortality at 400 ppm: SM & MA RATE 400 PPM
Outline: (§1)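 Formulation: acetone/alcohol 50:50 + sulfonate/nonionic emulsifiers, water-diluted to indicated concs. Spray both leaf surfaces to runoff, 10 psi; dry 1 h. Armyworm: 2 excised uninfested leaves in Petri dish. Score % mortality after standard exposure.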

[2] = tested on: Erysiphe graminis tritici (powdery mildew); assay: Test 1 greenhouse foliar spray screen, powdery mildew on wheat; details: disease control rating, foliar spray on wheat, 400 ppm (+++ at 100 ppm)
[3] = tested on: Twospotted spider mites (Tetranychus urticae Koch); assay: Mite/insect screen, SM; details: for mortality at 200 ppm / mortality at 400 ppm: Tetranychus urticae, percent mortality, SAW, read-out: SM RESULTS %; for mortality at 200 ppm: SM & MA RATE 200 PPM; for mortality at 400 ppm: SM & MA RATE 400 PPM
Outline: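 Compounds dissolved in 50:50 acetone/alcohol containing sulfonate/nonionic emulsifier blends, then diluted with water to the indicated concentrations. Leaves sprayed on both surfaces to runoff at 10 psi and dried one hour. Percent mortality scored after standard exposure periods.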

[4] = tested on: melon aphids (Aphis gossypii Glover); assay: Mite/insect screen, MA; details: Aphis gossypii, percent mortality, SAW, read-out: MA RESULTS %; for mortality at 200 ppm: SM & MA RATE 200 PPM; for mortality at 400 ppm: SM & MA RATE 400 PPM
Outline: as §1

[5] = tested on: Septoria tritici (leaf blotch); assay: Test 1 greenhouse foliar spray screen, leaf blotch on wheat; details: disease control rating, foliar spray on wheat, 400 ppm (+++ at 100 ppm)
[6] = tested on: Pyricularia oryzae (rice blast); assay: whole plant or invertebrate; details: disease control rating, foliar spray on rice, 400 ppm (+++ at 100 ppm)
corn rootworm = assay: Mite/insect screen, CRW; details: percent mortality, read-out: CRW RESULTS %; for mortality at 12 ppm: CRW RATE 12.00 PPM; for mortality at 24 ppm: CRW RATE 24.00 PPM
Outline: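 Percent mortality is evaluated once the standard exposure period ends. Test material is applied as a water dilution of an acetone/alcohol (50:50) stock carrying two sulfonate/nonionic emulsifiers (23 and 13 g per liter).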

[7] = tested on: Puccinia recondita tritici (leaf rust); assay: Test 1 greenhouse foliar spray screen, leaf rust on wheat; details: disease control rating, foliar spray on wheat, 400 ppm (+++ at 100 ppm)
[8] = tested on: Pseudoperonospora cubensis (downy mildew); assay: Test 1 greenhouse foliar spray screen, downy mildew on squash; details: disease control rating, foliar spray on squash, 400 ppm (+++ at 100 ppm)
[9] = tested on: Cercospora beticola (leaf spot); assay: Test 1 greenhouse foliar spray screen, leaf spot on sugar beet; details: disease control rating, foliar spray on sugar beet, 400 ppm (+++ at 100 ppm)
[10] = tested on: Venturia inaequalis (apple scab); assay: Test 1 greenhouse foliar spray screen, apple scab on apple seedling; details: disease control rating, foliar spray on apple seedling, 400 ppm (+++ at 100 ppm)
[11] = tested on: Botrytis cinerea (gray mold); assay: Test 1 greenhouse foliar spray screen, gray mold on grape berries; details: disease control rating, spray on grape berries, 400 ppm (+++ at 100 ppm)

| SMILES | mortality at 200 ppm [1] | mortality at 400 ppm [1] | POWD MDEW [2] | mortality at 200 ppm [3] | mortality at 400 ppm [3] | mortality at 200 ppm [4] | mortality at 400 ppm [4] | LEAF BLOT [5] | RICE BLAST [6] | mortality at 12 ppm (corn rootworm) | mortality at 24 ppm (corn rootworm) | LEAF RUST [7] | DOWN MDEW [8] | LEAF SPOT [9] | APPL SCAB [10] | GRAY MOLD [11] | activity as miticides ([3]; summary statement in the description) |
| --- | --- | --- | --- | --- | --- | --- | --- | --- | --- | --- | --- | --- | --- | --- | --- | --- | --- |
| COc1ccc(CCNc2ccnc3cc(C(F)(F)F)ccc23)cc1OC [Example 48, N-[2-(3,4-dimethoxyphenyl)ethyl]-7-(trifluoromethyl)-4-quinolinamine] | 0% | 0% | + (20-89% control at 400 ppm) | 0% | 0% | 0% | 0% | - (0-19% control at 400 ppm) | + (20-89% control at 400 ppm) | 0% | 0% | + (20-89% control at 400 ppm) | ++ (90-100% control at 400 ppm) | + (20-89% control at 400 ppm) | - (0-19% control at 400 ppm) | - (0-19% control at 400 ppm) | – |
| Cc1ccc(CCNc2ccnc3cc(Cl)ccc23)cc1 [Example 50, 7-chloro-N-[2-(4-methylphenyl)ethyl]-4-quinolinamine] | 0% | 0% | +++ (90-100% control at 100 ppm) | 0% | 0% | 0% | 0% | - (0-19% control at 400 ppm) | - (0-19% control at 400 ppm) | 0% | 0% | ++ (90-100% control at 400 ppm) | +++ (90-100% control at 100 ppm) | - (0-19% control at 400 ppm) | - (0-19% control at 400 ppm) | - (0-19% control at 400 ppm) | – |
| Fc1ccc(CCNc2ccnc3c(Cl)cccc23)cc1 [Example 51, 8-chloro-N-[2-(4-fluorophenyl)ethyl]-4-quinolinamine] | 0% | 20% | - (0-19% control at 400 ppm) | 0% | 0% | 0% | 0% | - (0-19% control at 400 ppm) | + (20-89% control at 400 ppm) | 0% | 0% | + (20-89% control at 400 ppm) | +++ (90-100% control at 100 ppm) | +++ (90-100% control at 100 ppm) | - (0-19% control at 400 ppm) | - (0-19% control at 400 ppm) | – |
| FC(F)(F)c1cccc2c(NCCc3ccc(Cl)cc3Cl)ccnc12 [Example 52, N-[2-(2,4-dichlorophenyl)ethyl]-8-(trifluoromethyl)-4-quinolinamine] | 0% | 0% | - (0-19% control at 400 ppm) | 0% | 0% | 0% | 0% | +++ (90-100% control at 100 ppm) | + (20-89% control at 400 ppm) | 0% | 0% | + (20-89% control at 400 ppm) | +++ (90-100% control at 100 ppm) | + (20-89% control at 400 ppm) | - (0-19% control at 400 ppm) | - (0-19% control at 400 ppm) | – |
| Cc1ccc2nccc(NCCc3ccc(Cl)cc3Cl)c2c1 [Example 53, .N-[2-(2,4-dichlorophenyl)ethyl]-6-methyl-4-quinolinamine] | 0% | 0% | +++ (90-100% control at 100 ppm) | 0% | 0% | 0% | 0% | + (20-89% control at 400 ppm) | + (20-89% control at 400 ppm) | 0% | 0% | + (20-89% control at 400 ppm) | +++ (90-100% control at 100 ppm) | +++ (90-100% control at 100 ppm) | - (0-19% control at 400 ppm) | - (0-19% control at 400 ppm) | – |
| COc1cc2c(NCCc3ccccc3)cc(C)nc2cc1Cl [Example 54, 7-chloro-6-methoxy-2-methyl-N-(2-phenylethyl)-4-quinolinamine] | 0% | – | - (0-19% control at 400 ppm) | 0% | – | 0% | – | + (20-89% control at 400 ppm) | ++ (90-100% control at 400 ppm) | 0% | – | + (20-89% control at 400 ppm) | +++ (90-100% control at 100 ppm) | +++ (90-100% control at 100 ppm) | - (0-19% control at 400 ppm) | - (0-19% control at 400 ppm) | – |
| COc1ccccc1CCNc1ccnc2ccccc12 [Example 55, N-[2-(2-methoxyphenyl)ethyl]-4-quinolinamine] | 0% | – | + (20-89% control at 400 ppm) | 0% | – | 0% | – | - (0-19% control at 400 ppm) | ++ (90-100% control at 400 ppm) | 0% | – | + (20-89% control at 400 ppm) | ++ (90-100% control at 400 ppm) | +++ (90-100% control at 100 ppm) | - (0-19% control at 400 ppm) | - (0-19% control at 400 ppm) | – |
| Fc1ccc2nccc(NCCc3ccc(Cl)cc3)c2c1 [Example 56, N-[2-(4-chlorophenyl)ethyl]-6-fluoro-4-quinolinamine] | 100% | 80% | - (0-19% control at 400 ppm) | 0% | 0% | 0% | 0% | + (20-89% control at 400 ppm) | ++ (90-100% control at 400 ppm) | 0% | 0% | ++ (90-100% control at 400 ppm) | +++ (90-100% control at 100 ppm) | +++ (90-100% control at 100 ppm) | - (0-19% control at 400 ppm) | - (0-19% control at 400 ppm) | particularly excellent activity |
| Cc1cc(NCCc2ccc(Cl)cc2)c2cc(F)ccc2n1 [Example 57, N-[2-(4-chlorophenyl)ethyl]-2-methyl-6-fluoro-4-quinolinamine] | 40% | 50% | - (0-19% control at 400 ppm) | 0% | 0% | 0% | 0% | - (0-19% control at 400 ppm) | ++ (90-100% control at 400 ppm) | 0% | 0% | + (20-89% control at 400 ppm) | ++ (90-100% control at 400 ppm) | +++ (90-100% control at 100 ppm) | - (0-19% control at 400 ppm) | - (0-19% control at 400 ppm) | – |
| Fc1cccc2c(NCC(c3ccccc3)C3CCCCC3)ccnc12 (centres unmarked) [Example 62, 8-fluoro-N-(2-cyclohexyl-2-phenylethyl)-4-quinolinamine] | – | 0% | - (0-19% control at 400 ppm) | – | 0% | – | 0% | + (20-89% control at 400 ppm) | ++ (90-100% control at 400 ppm) | – | 0% | ++ (90-100% control at 400 ppm) | +++ (90-100% control at 100 ppm) | - (0-19% control at 400 ppm) | - (0-19% control at 400 ppm) | - (0-19% control at 400 ppm) | – |
